Measurements published in patent publication US10681909B2, “Herbicidal triazoles” (FMC Corporation, priority 2014, dated 2020).

Assays:
ryegrass, Italian = assay: Test A preemergence; assay type: in vivo, Lolium multiflorum; conditions: 0 to 100 scale (0 no effect, 100 complete control)
How it was run: (§1)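 Visual injury score, 0 (no effect) to 100 (complete control), taken about 10 d after treatment against untreated greenhouse controls. Chemicals formulated in non-phytotoxic solvent plus surfactant; preemergence by directed soil spray onto sown loam/sand, postemergence onto one- to two-leaf plants.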

pigweed [1] = assay: Test D preemergence; assay type: in vivo, Amaranthus retroflexus; conditions: for Plant response rating (0 to 100), Pigweed: 16 g ai/ha, 0 is no effect, 100 is complete control; for Plant response rating: Pigweed: scale 0 to 100
Excerpt: (§2) Seeds of plant species selected from bluegrass (annual bluegrass, Poa annua), blackgrass (Alopecurus myosuroides), canarygrass (Phalaris minor), chickweed (common chickweed, Stellaria media), galium (catchweed bedstraw, Galium aparine), bromegrass, down (downy bromegrass, Bromus tectorum), Russian thistle (Salsola kali), field poppy (Papaver rhoeas), field violet (Viola arvensis), foxtail, green (green foxtail, Setaria viridis), deadnettle (henbit deadnettle, Lamium amplexicaule), ryegrass, Ital. (Italian ryegrass, Lolium multiflorum), kochia (Kochia scoparia), lambsquarters (Chenopodium album), oilseed rape (Brassica napus), pigweed (Amaranthus retroflexus), chamomile (scentless chamomile, Matricaria inodora), speedwell (bird's-eye speedwell, Veronica persica), barley, spring (spring barley, Hordeum vulgare), wheat, spring (spring wheat, Triticum aestivum), buckwheat, wild (wild buckwheat, Polygonum convolvulus), wild mustard (Sinapis arvensis), oat, wild (wild oat, Avena fatua), radish, wild (wild radish, Raphanus raphanistrum), […]), barley, winter (winter barley, Hordeum vulgare), and wheat, winter (winter wheat, Triticum aestivum) were planted into a silt loam soil and treated preemergence with test chemicals formulated in a non-phytotoxic solvent mixture which included a surfactant. At the same time, these species were planted in pots containing Sunshine Redi-Earth® planting medium comprising spaghnum peat moss, vermiculite, starter nutrients and dolomitic limestone and treated with postemergence applications of the test chemicals formulated in the same manner. Plants ranged in height from 2 to 18 cm (1- to 4-leaf stage). Treated plants and controls were maintained in a controlled growth environment for 14 to 21 d after which time all species were compared to controls and visually evaluated. […] A dash (-) response means no test result.

blackgrass = assay: Test D preemergence; assay type: in vivo, Alopecurus myosuroides; conditions: for Plant response rating (0 to 100), Blackgrass: 16 g ai/ha, 0 is no effect, 100 is complete control; for Plant response rating: Blackgrass: scale 0 to 100
Excerpt: as §2

bluegrass = assay: Test D postemergence; assay type: in vivo, Poa annua; conditions: scale 0 to 100
Excerpt: as §2

radish, wild = assay: Test D postemergence; assay type: in vivo, Raphanus raphanistrum; conditions: scale 0 to 100
Excerpt: as §2

johnsongrass = assay: Test C preemergence; assay type: in vivo, Sorghum halepense; conditions: for Plant response rating (scale of 0 to 100 where 0 is no effect and 100 is complete control): Johnsongrass, preemergence; for Johnsongrass plant response rating (0 to 100): Preemergence, visual rating after 13 to 15 d
Excerpt: (§3) Seeds of plant species selected from blackgrass (Alopecurus myosuroides), ryegrass, Italian (Italian ryegrass, Lolium multiflorum), wheat (winter wheat, Triticum aestivum), galium (catchweed bedstraw, Galium aparine), corn (Zea mays), crabgrass, large (large crabgrass, Digitaria sanguinalis), foxtail, giant, (giant foxtail, Setaria faberii), johnsongrass (Sorghum halepense), lambsquarters (Chenopodium album), morningglory (Ipomoea coccinea), nutsedge, yellow (yellow nutsedge, Cyperus esculentus), pigweed (Amaranthus retroflexus), ragweed (common ragweed, Ambrosia elatior), soybean (Glycine max), barnyardgrass (Echinochloa crus-galli), oilseed rape (Brassica napus), waterhemp (common waterhemp, Amaranthus rudis), and velvetleaf (Abutilon theophrasti) were planted into a blend of loam soil and sand and treated preemergence with test chemicals formulated in a non-phytotoxic solvent mixture which included a surfactant. At the same time, plants selected from these crop and weed species and also chickweed (common chickweed, Stellaria media), oat, wild (wild oat, Avena fatua), and kochia (Kochia scoparia), were planted in pots containing Sunshine Redi-Earth® planting medium comprising spaghnum peat moss, vermiculite, starter nutrients and dolomitic limestone and treated with postemergence applications of test chemicals formulated in the same manner. Plants ranged in height from 2 to 18 cm (1- to 4-leaf stage) for postemergence treatments. […] A dash (-) response means no test result.

lambsquarters = assay: Test D postemergence; assay type: in vivo, Chenopodium album; conditions: scale 0 to 100
Excerpt: as §2

kochia = assay: Test D preemergence; assay type: in vivo, Kochia scoparia; conditions: for Plant response rating (0 to 100), Kochia: 16 g ai/ha, 0 is no effect, 100 is complete control; for Plant response rating: Kochia: scale 0 to 100
Excerpt: as §2

pigweed [2] = assay: Test D postemergence; assay type: in vivo, Amaranthus retroflexus; conditions: scale 0 to 100
Excerpt: as §2

chickweed = assay: Test D preemergence; assay type: in vivo, Stellaria media; conditions: for Plant response rating (0 to 100), Chickweed: 16 g ai/ha, 0 is no effect, 100 is complete control; for Plant response rating: Chickweed: scale 0 to 100
Excerpt: as §2

galium = assay: Test A postemergence; assay type: in vivo, Galium aparine; conditions: 0 to 100 scale (0 no effect, 100 complete control), approx. 10 d
How it was run: as §1

oat, wild = assay: Test D postemergence; assay type: in vivo, Avena fatua; conditions: scale 0 to 100
Excerpt: as §2

ragweed = assay: Test C preemergence; assay type: in vivo, Ambrosia elatior; conditions: for Ragweed plant response rating (0 to 100): Preemergence, visual rating after 13 to 15 d; for Plant response rating (scale of 0 to 100 where 0 is no effect and 100 is complete control): Ragweed, preemergence
Excerpt: as §3

## FC(F)(F)COc1nc(-c2ccccc2)nn1Cc1ccnc(C(F)(F)F)c1 [Compound 24]
ryegrass, Italian; 125 g ai/ha
  Plant response rating, Ryegrass, Italian: 70
ryegrass, Italian; 500 g ai/ha, approx. 10 d
  Plant response rating, Ryegrass, Italian: 80
Pigweed [1]
  Plant response rating (0 to 100), Pigweed: 95
Pigweed [1]; 62 g ai/ha
  Plant response rating: Pigweed: 100
Pigweed [1]; 125 g ai/ha
  Plant response rating: Pigweed: 100
blackgrass
  Plant response rating (0 to 100), Blackgrass: 20
blackgrass; 31 g ai/ha
  Plant response rating: Blackgrass: 45
blackgrass; 62 g ai/ha
  Plant response rating: Blackgrass: 50
blackgrass; 125 g ai/ha
  Plant response rating: Blackgrass: 65
bluegrass; 16 g ai/ha
  Plant response rating: Bluegrass: 15
bluegrass; 31 g ai/ha
  Plant response rating: Bluegrass: 35
bluegrass; 62 g ai/ha
  Plant response rating: Bluegrass: 60
bluegrass; 125 g ai/ha
  Plant response rating: Bluegrass: 70
radish, wild; 16 g ai/ha
  Plant response rating: Radish, Wild: 70
radish, wild; 31 g ai/ha
  Plant response rating: Radish, Wild: 95
radish, wild; 62 g ai/ha
  Plant response rating: Radish, Wild: 95
radish, wild; 125 g ai/ha
  Plant response rating: Radish, Wild: 95
johnsongrass; 125 g ai/ha
  Plant response rating (scale of 0 to 100 where 0 is no effect and 100 is complete control): 55
johnsongrass; 250 g ai/ha
  Plant response rating (scale of 0 to 100 where 0 is no effect and 100 is complete control): 85
johnsongrass; 31 g ai/ha
  Johnsongrass plant response rating (0 to 100): 10
johnsongrass; 62 g ai/ha
  Johnsongrass plant response rating (0 to 100): 40
lambsquarters; 16 g ai/ha
  Plant response rating: Lambsquarters: 65
lambsquarters; 31 g ai/ha
  Plant response rating: Lambsquarters: 75
lambsquarters; 62 g ai/ha
  Plant response rating: Lambsquarters: 80
lambsquarters; 125 g ai/ha
  Plant response rating: Lambsquarters: 85
kochia
  Plant response rating (0 to 100), Kochia: 85
kochia; 62 g ai/ha
  Plant response rating: Kochia: 90
kochia; 125 g ai/ha
  Plant response rating: Kochia: 90
Pigweed [2]; 16 g ai/ha
  Plant response rating: Pigweed: 95
Pigweed [2]; 31 g ai/ha
  Plant response rating: Pigweed: 100
Pigweed [2]; 62 g ai/ha
  Plant response rating: Pigweed: 100
Pigweed [2]; 125 g ai/ha
  Plant response rating: Pigweed: 100
chickweed
  Plant response rating (0 to 100), Chickweed: 55
chickweed; 31 g ai/ha
  Plant response rating: Chickweed: 60
chickweed; 62 g ai/ha
  Plant response rating: Chickweed: 70
chickweed; 125 g ai/ha
  Plant response rating: Chickweed: 90
galium; 125 g ai/ha
  Plant response rating, Galium: 70
galium; 500 g ai/ha
  Plant response rating, Galium: 90
oat, wild; 16 g ai/ha
  Plant response rating: Oat, Wild: 35
oat, wild; 31 g ai/ha
  Plant response rating: Oat, Wild: 45
oat, wild; 62 g ai/ha
  Plant response rating: Oat, Wild: 50
oat, wild; 125 g ai/ha
  Plant response rating: Oat, Wild: 55
ragweed; 31 g ai/ha
  Ragweed plant response rating (0 to 100): 5
ragweed; 62 g ai/ha
  Ragweed plant response rating (0 to 100): 25
ragweed; 125 g ai/ha
  Plant response rating (scale of 0 to 100 where 0 is no effect and 100 is complete control): 25
ragweed; 250 g ai/ha
  Plant response rating (scale of 0 to 100 where 0 is no effect and 100 is complete control): 55

## COc1nc(-c2ccc(Cl)cc2)nn1Cc1ccnc(C(F)(F)F)c1 [Compound 28]
ryegrass, Italian; 125 g ai/ha
  Plant response rating, Ryegrass, Italian: 20
ryegrass, Italian; 500 g ai/ha, approx. 10 d
  Plant response rating, Ryegrass, Italian: 90
Pigweed [1]
  Plant response rating (0 to 100), Pigweed: 100
Pigweed [1]; 62 g ai/ha
  Plant response rating: Pigweed: 100
Pigweed [1]; 125 g ai/ha
  Plant response rating: Pigweed: 100
blackgrass
  Plant response rating (0 to 100), Blackgrass: 30
blackgrass; 31 g ai/ha
  Plant response rating: Blackgrass: 30
blackgrass; 62 g ai/ha
  Plant response rating: Blackgrass: 50
blackgrass; 125 g ai/ha
  Plant response rating: Blackgrass: 50
bluegrass; 16 g ai/ha
  Plant response rating: Bluegrass: 20
bluegrass; 31 g ai/ha
  Plant response rating: Bluegrass: 20
bluegrass; 62 g ai/ha
  Plant response rating: Bluegrass: 45
bluegrass; 125 g ai/ha
  Plant response rating: Bluegrass: 40
radish, wild; 16 g ai/ha
  Plant response rating: Radish, Wild: 85
radish, wild; 31 g ai/ha
  Plant response rating: Radish, Wild: 95
radish, wild; 62 g ai/ha
  Plant response rating: Radish, Wild: 95
radish, wild; 125 g ai/ha
  Plant response rating: Radish, Wild: 100
lambsquarters; 16 g ai/ha
  Plant response rating: Lambsquarters: 75
lambsquarters; 31 g ai/ha
  Plant response rating: Lambsquarters: 90
lambsquarters; 62 g ai/ha
  Plant response rating: Lambsquarters: 85
lambsquarters; 125 g ai/ha
  Plant response rating: Lambsquarters: 95
kochia
  Plant response rating (0 to 100), Kochia: 85
kochia; 62 g ai/ha
  Plant response rating: Kochia: 85
kochia; 125 g ai/ha
  Plant response rating: Kochia: 95
Pigweed [2]; 16 g ai/ha
  Plant response rating: Pigweed: 100
Pigweed [2]; 31 g ai/ha
  Plant response rating: Pigweed: 100
Pigweed [2]; 62 g ai/ha
  Plant response rating: Pigweed: 100
Pigweed [2]; 125 g ai/ha
  Plant response rating: Pigweed: 100
chickweed
  Plant response rating (0 to 100), Chickweed: 65
chickweed; 31 g ai/ha
  Plant response rating: Chickweed: 70
chickweed; 62 g ai/ha
  Plant response rating: Chickweed: 70
chickweed; 125 g ai/ha
  Plant response rating: Chickweed: 90
galium; 125 g ai/ha
  Plant response rating, Galium: 50
galium; 500 g ai/ha
  Plant response rating, Galium: 80
oat, wild; 16 g ai/ha
  Plant response rating: Oat, Wild: 30
oat, wild; 31 g ai/ha
  Plant response rating: Oat, Wild: 40
oat, wild; 62 g ai/ha
  Plant response rating: Oat, Wild: 45
oat, wild; 125 g ai/ha
  Plant response rating: Oat, Wild: 50
